From patent publication US6346542B1, “Pesticidal composition comprising enantiomeric form of fipronil” (priority 1999, dated 2002)

Tests used:
[1] = test system: dogs; test: Emesis after oral administration; type: in vivo, dog; settings: for dogs showing emesis: 20 mg/kg oral capsule, within 5 hours after administration; for emetic activity on oral administration: oral administration to animals, dose not stated
Experimental: Another unexpected substantial advantage is that the (S) enantiomer provides a substantial reduction in emesis when administered to an animal orally. By the term “emesis” is meant vomiting. Generally, an emetic substance elicits emesis in less than 24 hours after administration, usually less than 8 hours, more usually less than 2 hours.

[2] = test system: cat fleas (Ctenocephalides felis); test: Oral efficacy against cat fleas on infested dogs; type: in vivo
[3] = test system: brown dog ticks (Rhipicephalus sanguineus); test: Oral efficacy against brown dog ticks on infested dogs; settings: for ticks remaining: 23 days after administration
[4] = test system: dogs; settings: 10 mg/kg in dogs

Compound	dogs showing emesis [1]	emetic activity on oral administration [1]	per cent (%) mortality of the arthropods, Flea ([2]; 1 mg/kg oral, 1 DAT)	per cent (%) mortality of the arthropods, Flea ([2]; 1 mg/kg oral, 9 DAT)	per cent (%) mortality of the arthropods, Flea ([2]; 1 mg/kg oral, 16 DAT)	per cent (%) mortality of the arthropods, Flea ([2]; 1 mg/kg oral, 23 DAT)	per cent (%) mortality of the arthropods, Flea ([2]; 3 mg/kg oral, 1 DAT)	per cent (%) mortality of the arthropods, Flea ([2]; 3 mg/kg oral, 9 DAT)	per cent (%) mortality of the arthropods, Flea ([2]; 3 mg/kg oral, 16 DAT)	per cent (%) mortality of the arthropods, Flea ([2]; 3 mg/kg oral, 23 DAT)	per cent (%) mortality of the arthropods, Flea ([2]; 10 mg/kg oral, 1 DAT)	per cent (%) mortality of the arthropods, Flea ([2]; 10 mg/kg oral, 9 DAT)	per cent (%) mortality of the arthropods, Flea ([2]; 10 mg/kg oral, 16 DAT)	per cent (%) mortality of the arthropods, Flea ([2]; 10 mg/kg oral, 23 DAT)	per cent (%) mortality of the arthropods, Flea ([2]; 20 mg/kg oral capsule, 1 DAT)	per cent (%) mortality of the arthropods, Flea ([2]; 20 mg/kg oral capsule, 9 DAT)	per cent (%) mortality of the arthropods, Flea ([2]; 20 mg/kg oral capsule, 16 DAT)	per cent (%) mortality of the arthropods, Flea ([2]; 20 mg/kg oral capsule, 23 DAT)	per cent (%) mortality of the arthropods, Flea ([2]; 20 mg/kg oral capsule, 31 DAT)	per cent (%) mortality of the arthropods, Tick ([3]; 1 mg/kg oral, 1 DAT)	also measured
N#Cc1nn(-c2c(Cl)cc(C(F)(F)F)cc2Cl)c(N)c1[S@+]([O-])C(F)(F)F [Compound B, (S)-5-amino-3-cyano-1-(2,6-dichloro-4-trifluoromethylphenyl)-4-trifluoromethylsulfinylpyrazole]	50%	lower emetic activity	100%	100%	90%	79%	100%	98%	67%	50%	100%	99%	87%	83%	100%	96%	86%	88%	84%	100%	symptoms of emesis ([1]; oral, dogs, at any rate (1, 3, 10 mg/kg)): substantially no symptoms of emesis; per cent (%) mortality of the arthropods, Tick ([3]; 1 mg/kg oral, 9 DAT): 100%; per cent (%) mortality of the arthropods, Tick ([3]; 1 mg/kg oral, 16 DAT): 87%; per cent (%) mortality of the arthropods, Tick ([3]; 1 mg/kg oral, 23 DAT): 85%; per cent (%) mortality of the arthropods, Tick ([3]; 3 mg/kg oral, 1 DAT): 98%; per cent (%) mortality of the arthropods, Tick ([3]; 3 mg/kg oral, 9 DAT): 99%; per cent (%) mortality of the arthropods, Tick ([3]; 3 mg/kg oral, 16 DAT): 75%; per cent (%) mortality of the arthropods, Tick ([3]; 3 mg/kg oral, 23 DAT): 63%; per cent (%) mortality of the arthropods, Tick ([3]; 10 mg/kg oral, 1 DAT): 99%; per cent (%) mortality of the arthropods, Tick ([3]; 10 mg/kg oral, 9 DAT): 100%; per cent (%) mortality of the arthropods, Tick ([3]; 10 mg/kg oral, 16 DAT): 85%; per cent (%) mortality of the arthropods, Tick (effectiveness) ([3]; 10 mg/kg oral, 23 DAT): 85%; ticks remaining ([3]; 10 mg/kg oral): 15%; per cent (%) mortality of the arthropods, Tick ([3]; 20 mg/kg oral capsule, 1 DAT): 99%; per cent (%) mortality of the arthropods, Tick ([3]; 20 mg/kg oral capsule, 9 DAT): 97%; per cent (%) mortality of the arthropods, Tick ([3]; 20 mg/kg oral capsule, 16 DAT): 87%; per cent (%) mortality of the arthropods, Tick ([3]; 20 mg/kg oral capsule, 23 DAT): 86%; per cent (%) mortality of the arthropods, Tick ([3]; 20 mg/kg oral capsule, 31 DAT): 92%
N#Cc1nn(-c2c(Cl)cc(C(F)(F)F)cc2Cl)c(N)c1[S+]([O-])C(F)(F)F (racemic) [fipronil, 5-amino-3-cyano-1-(2,6-dichloro-4-trifluoromethylphenyl)-4-trifluoromethylsulfinylpyrazole]		causes emesis																			
CC(=O)Nc1c([S@@+]([O-])C(F)(F)F)c(C#N)nn1-c1c(Cl)cc(C(F)(F)F)cc1Cl (single isomer, unassigned) [5-acetylamino (R) enantiomer]																					mortality [4]: 33%
N#Cc1nn(-c2c(Cl)cc(C(F)(F)F)cc2Cl)c(N)c1[S@@+]([O-])C(F)(F)F [Compound C, (R)-5-amino-3-cyano-1-(2,6-dichloro-4-trifluoromethylphenyl)-4-trifluoromethylsulfinylpyrazole]	90%		100%	100%	76%	72%	100%	78%	72%	64%	100%	95%	72%	86%	100%	86%	69%	67%	69%	100%	animals showing emesis symptoms ([1]; 3 mg/kg oral, dogs, after 2 hours): 20%; animals showing emesis symptoms ([1]; 10 mg/kg oral, dogs, after 1 hour): 40%; animals showing emesis symptoms ([1]; 10 mg/kg oral, dogs, after 3 hours): 20%; per cent (%) mortality of the arthropods, Tick ([3]; 1 mg/kg oral, 9 DAT): 100%; per cent (%) mortality of the arthropods, Tick ([3]; 1 mg/kg oral, 16 DAT): 66%; per cent (%) mortality of the arthropods, Tick ([3]; 1 mg/kg oral, 23 DAT): 78%; per cent (%) mortality of the arthropods, Tick ([3]; 3 mg/kg oral, 1 DAT): 93%; per cent (%) mortality of the arthropods, Tick ([3]; 3 mg/kg oral, 9 DAT): 89%; per cent (%) mortality of the arthropods, Tick ([3]; 3 mg/kg oral, 16 DAT): 71%; per cent (%) mortality of the arthropods, Tick ([3]; 3 mg/kg oral, 23 DAT): 65%; per cent (%) mortality of the arthropods, Tick ([3]; 10 mg/kg oral, 1 DAT): 97%; per cent (%) mortality of the arthropods, Tick ([3]; 10 mg/kg oral, 9 DAT): 97%; per cent (%) mortality of the arthropods, Tick ([3]; 10 mg/kg oral, 16 DAT): 71%; per cent (%) mortality of the arthropods, Tick (effectiveness) ([3]; 10 mg/kg oral, 23 DAT): 71%; ticks remaining ([3]; 10 mg/kg oral): 29%; per cent (%) mortality of the arthropods, Tick ([3]; 20 mg/kg oral capsule, 1 DAT): 97%; per cent (%) mortality of the arthropods, Tick ([3]; 20 mg/kg oral capsule, 9 DAT): 96%; per cent (%) mortality of the arthropods, Tick ([3]; 20 mg/kg oral capsule, 16 DAT): 85%; per cent (%) mortality of the arthropods, Tick ([3]; 20 mg/kg oral capsule, 23 DAT): 77%; per cent (%) mortality of the arthropods, Tick ([3]; 20 mg/kg oral capsule, 31 DAT): 81%
